Measurements from patent publication EP1157985A1 (G.D. SEARLE & CO., priority 1996, dated 1997).
Structures can show the parent of a compound that is named as a salt. Where two headings read alike, the source gives them in different places.

Columns and labels:
[1] = target: T1, Human vitronectin receptor (αvβ3) (Homo sapiens, UniProt P05106+P06756); test: Vitronectin adhesion assay (solid phase receptor assay, competition with biotinylated vitronectin); type: binding
T1 construct: Human vitronectin receptor (αvβ3) was purified from human placenta; from tissue; host or cells: human placenta
Protocol: VITRONECTIN ADHESION ASSAY
Human vitronectin receptor (αvβ3) was purified from human placenta as previously described [Pytela et al., Methods in Enzymology, 144:475-489 (1987)]. Human vitronectin was purified from fresh frozen plasma as previously described [Yatohgo et al., Cell Structure and Function, 13:281-292 (1988)]. Biotinylated human vitronectin was prepared by coupling NHS-biotin from Pierce Chemical Company (Rockford, IL) to purified vitronectin as previously described [Charo et al., J. Biol. Chem., 266(3):1415-1421 (1991)]. Assay buffer, OPD substrate tablets, and RIA grade BSA were obtained from Sigma (St. Louis, MO). Anti-biotin antibody was obtained from Calbiochem (La Jolla, CA). Linbro microtiter plates were obtained from Flow Labs (McLean, VA). ADP reagent was obtained from Sigma (St. Louis, MO).
This assay was essentially the same as previously reported [Niiya et al., Blood, 70:475-483 (1987)]. The purified human vitronectin receptor (αvβ3) was diluted from stock solutions to 1.0 µg/mL in Tris-buffered saline containing 1.0 mM Ca^++, Mg^++, and Mn^++, pH 7.4 (TBS^+++). The diluted receptor was immediately transferred to Linbro microtiter plates at 100 µL/well (100 ng receptor/well). The plates were sealed and incubated overnight at 4°C to allow the receptor to bind to the wells. All remaining steps were at room temperature. The assay plates were emptied and 200 µL of 1% RIA grade BSA in TBS^+++ (TBS^+++/BSA) were added to block exposed plastic surfaces. Following a 2 hour incubation, the assay plates were washed with TBS^+++ using a 96 well plate washer. Logarithmic serial dilution of the test compound and controls were made starting at a stock concentration of 2 mM and using 2 nM biotinylated vitronectin in TBS^+++/BSA as the diluent. This premixing of labeled ligand with test (or control) ligand, and subsequent transfer of 50 µL aliquots to the assay plate was carried out with a CETUS Propette robot; the final concentration of the labeled ligand was 1 nM and the highest concentration of test compound was 1.0 x 10^-4 M. The competition occurred for two hours after which all wells were washed with a plate washer as before. Affinity purified horseradish peroxidase labeled goat anti-biotin antibody was diluted 1:3000 in TBS^+++/BSA and 125 µL were added to each well. After 30 minutes, the plates were washed and incubated with OPD/H2O2 substrate in 100 mM/L Citrate buffer, pH 5.0. The plate was read with a microtiter plate reader at a wavelength of 450 nm and when the maximum-binding control wells reached an absorbance of about 1.0, the final A450 were recorded for analysis. The data were analyzed using a macro written for use with the EXCEL™ spreadsheet program. The mean, standard deviation, and %CV were determined for duplicate concentrations. The mean A450 values were normalized to the mean of four maximum-binding controls (no competitor added)(B-MAX). The normalized values were subjected to a four parameter curve fit algorithm [Rodbard et al., Int.

[2] = target: T2, Human fibrinogen receptor (αIIbβ3) (Homo sapiens, UniProt P05106+P08514); test: Purified IIb/IIIa receptor assay (solid phase receptor assay, competition with biotinylated vitronectin); type: binding; conditions: purified receptor from outdated platelets; 1 nM biotinylated vitronectin; highest concentration tested 1.0 x 10^-4 M
T2 construct: Human fibrinogen receptor (αIIbβ3) was purified from outdated platelets; from tissue; host or cells: outdated (human) platelets
Text: PURIFIED IIb/IIIa RECEPTOR ASSAY
Human fibrinogen receptor (αIIbβ3) was purified from outdated platelets. (Pytela, R., Pierschbacher, M.D., Argraves, S., Suzuki, S., and Rouslahti, E. "Arginine-Glycine-Aspartic acid adhesion receptors", Methods in Enzymology 144(1987):475-489.) Human vitronectin was purified from fresh frozen plasma as described in Yatohgo, T., Izumi, M., Kashiwagi, H., and Hayashi, M., "Novel purification of vitronectin from human plasma by heparin affinity chromatography," Cell Structure and Function 13(1988):281-292. Biotinylated human vitronectin was prepared by coupling NHS-biotin from Pierce Chemical Company (Rockford, IL) to purified vitronectin as previously described. (Charo, I.F., Nannizzi, L., Phillips, D.R., Hsu, M.A., Scarborough, R.M., "Inhibition of fibrinogen binding to GP IIb/IIIa by a GP IIIa peptide", J. Biol. Chem. 266(3)(1991): 1415-1421.) Assay buffer, OPD substrate tablets, and RIA grade BSA were obtained from Sigma (St. Louis, MO). Anti-biotin antibody was obtained from Calbiochem (La Jolla, CA). Linbro microtiter plates were obtained from Flow Labs (McLean, VA). ADP reagent was obtained from Sigma (St. Louis, MO).
This assay is essentially the same reported in Niiya, K., Hodson, E., Bader, R., Byers-Ward, V. Koziol, J.A., Plow, E.F. and Ruggeri, Z.M., "Increased surface expression of the membrane glycoprotein IIb/IIIa complex induced by platelet activation: Relationships to the binding of fibrinogen and platelet aggregation", Blood 70(1987):475-483. The purified human fibrinogen receptor (αIIbβ3) was diluted from stock solutions to 1.0 µg/mL in Tris-buffered saline containing 1.0 mM Ca^++, Mg^++, and Mn^++, pH 7.4 (TBS^+++). The diluted receptor was immediately transferred to Linbro microtiter plates at 100 µL/well (100 ng receptor/well). The plates were sealed and incubated overnight at 4°C to allow the receptor to bind to the wells. All remaining steps were at room temperature. The assay plates were emptied and 200 µL of 1% RIA grade BSA in TBS^+++ (TBS^+++/BSA) were added to block exposed plastic surfaces. Following a 2 hour incubation, the assay plates were washed with TBS^+++ using a 96 well plate washer. Logarithmic serial dilution of the test compound and controls were made starting at a stock concentration of 2 mM and using 2 nM biotinylated vitronectin in TBS^+++/BSA as the diluent. This premixing of labeled ligand with test (or control) ligand, and subsequent transfer of 50 µL aliquots to the assay plate was carried out with a CETUS Propette robot; the final concentration of the labeled ligand was 1 nM and the highest concentration of test compound was 1.0 x 10^-4 M. The competition occurred for two hours after which all wells were washed with a plate washer as before. Affinity purified horseradish peroxidase labeled goat anti-biotin antibody was diluted 1:3000 in TBS^+++/BSA and 125 µL were added to each well. After 30 minutes, the plates were washed and incubated with […] substrate in 100 mM/L citrate buffer, pH 5.0. The plate was read with a microtiter plate reader at a wavelength of 450 nm and when the maximum-binding control wells reached an absorbance of about 1.0, the final A450 were recorded for analysis. The data were analyzed using a macro written for use with the EXCEL™ spreadsheet program. The mean, standard deviation, and %CV were determined for duplicate concentrations. The mean A450 values were normalized to the mean of four maximum-binding controls (no competitor added)(B-MAX). The normalized values were subjected to a four parameter curve fit algorithm, [Robard et al., Int. […]

[3] = purified receptor from human placenta; 1 nM biotinylated vitronectin; highest concentration tested 1.0 x 10^-4 M; read-out: AvB3 IC50

SMILES	IC50 [1, 3] [µM]	IC50 [2] [µM]	IC50 ([1]; read-out: AvB3 IC50; purified receptor from human placenta; 1 nM biotinylated vitronectin; highest concentration tested 1.0 x 10^-4 M) [µM]
N=C(N)c1cccc(C(=O)NCc2ccc(CCC(=O)O)cc2)c1 [Example 19, 4-[[[[3-(aminoiminomethyl)phenyl]carbonyl]amino]methyl]benzenepropanoic acid, trifluoroacetate salt]	> 100	1.78	
COc1cc(NC(=O)c2cccc(NC3=NCCCN3)c2)ccc1CCC(=O)O [Example 116, 2-methoxy-4-[[[3-[(1,4,5,6-tetrahydropyrimidin-2-yl)amino]phenyl]carbonyl]amino]benzenepropanoic acid, trifluoroacetate salt]	0.006	3.18	
CC(CC(=O)O)c1ccc(NC(=O)c2cccc(NC(=N)N)c2)cc1 (stereo not drawn) [Example 31, 4-[[[3-[(aminoiminomethyl)amino]phenyl]. carbonyl]amino]-β-methylbenzenepropanoic acid, trifluoroacetate salt]	0.114	0.0665	
N=C(N)Nc1cccc(NC(=O)Cc2ccc(OCC(=O)O)cc2)c1 [Example 84, [4-[2-[[3-[(aminoiminomethyl)amino]phenyl]amino]-2-oxoethyl]phenoxy]acetic acid, trifluoroacetate salt]	16.3	0.486	
COc1cc(NC(=O)c2cccc(NC3=NCCCN3)c2)ccc1OCC(=O)O [Example 119, [2-methoxy-4-[[[3-[(1,4,5,6-tetrahydropyrimidin-2-yl]-amino]phenyl]carbonyl]amino]phenoxy]acetic acid, trifluoroacetate salt]	0.0004	0.772	
N=C(N)Nc1cccc(C(=O)Nc2ccc(CC(NC(=O)N3CCOCC3)C(=O)O)cc2)c1 (centres unmarked) [Example 125, 4-[[[3-[(aminoiminomethyl)amino]phenyl]carbonyl]-amino]-N-[(4-morpholinyl)carbonyl]phenylalanine, bis(trifluoroacetate) salt, monohydrate]	0.007	0.26	
CC(C)OC(=O)NC(Cc1ccc(NC(=O)c2cccc(NC(N)=NC(N)=O)c2)cc1)C(=O)O (centres unmarked) [Example 105, 4-[[[3-[[amino[(aminocarbonyl)imino]methyl]-amino]phenyl]carbonyl]amino]-N-[(1-methylethoxy]carbonyl]phenylalanine, bis(trifluoroacetate) salt]	0.002	0.267	
N=C(N)Nc1cccc(C(=O)Nc2ccc(C(CC(=O)O)c3ccccc3)cc2)c1 (stereo not drawn) [Example 33, 4-[[[3-[(aminoiminomethyl)amino]phenyl]carbonyl]amino]-β-phenylbenzenepropanoic acid, trifluoroacetate salt]	0.0736	0.00737	
CCCCS(=O)(=O)N[C@@H](Cc1ccc(NC(=O)c2cc(NC3=NCCCCC3)cc(C(F)(F)F)c2)cc1)C(=O)O [Example 6, N-(butylsulfonyl)-4-[[[3-[(3,4,5,6-tetrahydro-2H-azepin-7-yl)-amino]-5-(trifluoromethyl)phenyl]carbonyl]-amino]phenylalanine, trifluoroacetate salt]	0.00051	0.0495	
COc1cc(NC(=O)c2cccc(NC3=NCCCN3)c2)ccc1C[C@H](NC(=O)OC(C)C)C(=O)O [Example 114, 2-methoxy-N-[(1-methylethoxy)carbonyl]-4-[[[3-[(1,4,5,6-tetrahydropyrimidin-2-yl)amino]-phenyl]-carbonyl]amino]phenylalanine, trifluoroacetate salt]	0.0002	1	
N=C(N)Nc1cccc(C(=O)Nc2ccc(CC(C(=O)O)C(=O)O)cc2)c1 [Example 120, [[4-[[[3-[(aminoiminomethyl)amino]phenyl]carbonyl]-amino]phenyl]methyl]-1,3-propanoic acid, trifluoroacetic salt]	0.014	0.384	
N=C(N)Nc1cccc(C(=O)NCCc2ccc(CCC(=O)O)cc2)c1 [Example 59, 4-[2-[[[3-[(aminoiminomethyl)amino]phenyl]carbonyl]amino]ethyl]benzenepropanoic acid, trifluoroacetate salt]	4.48	0.478	
CC(C)OC(=O)NC(Cc1ccc(NC(=O)c2cccc(NC(=N)N)c2)c(Cl)c1)C(=O)O (centres unmarked) [Example 127, trifluoroacetate salt]		0.022	0.0006
COC(=O)c1cc(NC(=O)c2cccc(NC(=N)N)c2)ccc1CCC(=O)O [Example 101B, 4-[[[3-[(aminoiminomethyl)amino]phenyl]carbonyl]-amino]-2-methoxycarbonyl)benzenepropanoic acid, bis(trifluoroacetate) salt]	0.035	0.286	
CC(C)OC(=O)NC(Cc1ccc(NC(=O)c2cccc(Nc3n[nH]c(N)n3)c2)cc1)C(=O)O (racemic) [Example 103, (±) 4-[[[3-[3-amino-1H-1,2,4-triazol-5-yl)amino]-phenyl]carbonyl]amino]-N-[(1-methylethoxy) carbonyl]phenylalanine, trifluoroacetate salt]	0.269	3.66	
CC(C)(C)OC(=O)NC(Cc1ccc(NC(=O)c2cccc(N=C(N)N)c2)cc1)C(=O)O (centres unmarked) [Example 55, 4-[[[3-[(aminoiminomethyl)amino]phenyl]carbonyl]amino]-N-[(1,1-dimethylethoxy)carbonyl]-phenylalanine, monohydrate trifluoroacetate salt]	0.00051	0.0143	
